Data as given in PMC8725837, “2-Arylquinolines as novel anticancer agents with dual EGFR/FAK kinase inhibitory activity: synthesis, biological evaluation, and molecular modelling insights” (Journal of Enzyme Inhibition and Medicinal Chemistry, 2021).

Assays:
FRK = molecular target: T1, FRK (Homo sapiens, UniProt P42685); assay: Z`-LYTE kinase profiling, FRK; type: biochemical
T1 construct: purchased Invitrogen/Life Technologies

HER-2 = molecular target: T2, HER-2 (Homo sapiens, UniProt P04626); assay: Z`-LYTE kinase profiling, HER-2; type: biochemical
T2 construct: purchased Invitrogen/Life Technologies

[1] = tested on: HCT-116 colorectal cancer cell line; assay: MTT antiproliferative assay, HCT-116; settings: for GI% HCT-116: 10 µM, 24 h, MTT; for IC50: Homo sapiens, HCT-116, 24 h, read-out: IC50 HCT-116 (half maximal growth inhibitory concentration)
Method: (§2) After the incubation of the tested compounds for 24 h, the percent growth inhibition (GI%) was calculated.
(§3) Cells were seeded at 1 × 10^4 cells/well and cultured overnight in a 96-well plate. […] Then, 150 µl DMSO was used to solubilise MTT formazan crystals. Finally, the plates were shaken, and the optical density was determined at 570 nm using ELISA plate reader. At least, three independent experiments were performed. Percentage of growth inhibition was determined as (1-[OD of treated cells/OD of control cells]). […] The IC50 values were calculated using Prism v0.8 software (GraphPad Software Inc., La Jolla, CA).

FAK = FAK (Homo sapiens, UniProt Q05397); assay: Z`-LYTE kinase inhibitory assay, FAK
Sequence of FAK (Q05397 whole entry): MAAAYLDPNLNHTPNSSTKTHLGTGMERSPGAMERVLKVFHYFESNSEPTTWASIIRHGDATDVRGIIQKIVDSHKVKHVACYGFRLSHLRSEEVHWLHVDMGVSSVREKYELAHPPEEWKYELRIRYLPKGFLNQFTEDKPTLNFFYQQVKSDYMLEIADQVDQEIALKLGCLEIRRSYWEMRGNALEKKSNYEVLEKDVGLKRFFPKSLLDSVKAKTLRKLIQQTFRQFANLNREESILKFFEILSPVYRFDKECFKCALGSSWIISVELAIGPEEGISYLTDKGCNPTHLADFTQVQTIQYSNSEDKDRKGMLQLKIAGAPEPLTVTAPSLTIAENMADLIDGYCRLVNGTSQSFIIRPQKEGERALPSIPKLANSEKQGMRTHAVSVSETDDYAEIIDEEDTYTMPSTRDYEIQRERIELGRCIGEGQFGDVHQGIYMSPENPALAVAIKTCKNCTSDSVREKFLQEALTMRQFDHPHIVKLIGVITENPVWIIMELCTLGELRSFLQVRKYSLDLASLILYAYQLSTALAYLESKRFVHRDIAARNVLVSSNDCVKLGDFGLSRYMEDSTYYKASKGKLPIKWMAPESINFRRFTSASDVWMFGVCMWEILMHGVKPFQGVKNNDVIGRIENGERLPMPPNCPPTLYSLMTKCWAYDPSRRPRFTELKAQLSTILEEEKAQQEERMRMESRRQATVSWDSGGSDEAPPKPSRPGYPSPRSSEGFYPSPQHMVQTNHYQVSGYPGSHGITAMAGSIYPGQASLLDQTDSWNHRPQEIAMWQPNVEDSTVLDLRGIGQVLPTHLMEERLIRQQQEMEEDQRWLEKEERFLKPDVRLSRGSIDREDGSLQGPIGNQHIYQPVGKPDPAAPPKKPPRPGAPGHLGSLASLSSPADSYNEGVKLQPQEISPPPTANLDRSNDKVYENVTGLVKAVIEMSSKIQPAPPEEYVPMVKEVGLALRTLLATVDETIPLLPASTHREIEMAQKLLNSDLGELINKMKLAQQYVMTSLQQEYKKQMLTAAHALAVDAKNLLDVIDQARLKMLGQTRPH

[2] = tested on: HeLa cervical cancer cell line; assay: MTT antiproliferative assay, HeLa; type: cell-based; settings: 10 µM, 24 h
Method: (§1) At least, three independent experiments were performed.

VEGFR-2 = molecular target: T3, VEGFR-2 (Homo sapiens, UniProt P35968); assay: Z`-LYTE kinase profiling, VEGFR-2; type: biochemical
T3 construct: purchased Invitrogen/Life Technologies
T3 sequence (P35968 20-1356): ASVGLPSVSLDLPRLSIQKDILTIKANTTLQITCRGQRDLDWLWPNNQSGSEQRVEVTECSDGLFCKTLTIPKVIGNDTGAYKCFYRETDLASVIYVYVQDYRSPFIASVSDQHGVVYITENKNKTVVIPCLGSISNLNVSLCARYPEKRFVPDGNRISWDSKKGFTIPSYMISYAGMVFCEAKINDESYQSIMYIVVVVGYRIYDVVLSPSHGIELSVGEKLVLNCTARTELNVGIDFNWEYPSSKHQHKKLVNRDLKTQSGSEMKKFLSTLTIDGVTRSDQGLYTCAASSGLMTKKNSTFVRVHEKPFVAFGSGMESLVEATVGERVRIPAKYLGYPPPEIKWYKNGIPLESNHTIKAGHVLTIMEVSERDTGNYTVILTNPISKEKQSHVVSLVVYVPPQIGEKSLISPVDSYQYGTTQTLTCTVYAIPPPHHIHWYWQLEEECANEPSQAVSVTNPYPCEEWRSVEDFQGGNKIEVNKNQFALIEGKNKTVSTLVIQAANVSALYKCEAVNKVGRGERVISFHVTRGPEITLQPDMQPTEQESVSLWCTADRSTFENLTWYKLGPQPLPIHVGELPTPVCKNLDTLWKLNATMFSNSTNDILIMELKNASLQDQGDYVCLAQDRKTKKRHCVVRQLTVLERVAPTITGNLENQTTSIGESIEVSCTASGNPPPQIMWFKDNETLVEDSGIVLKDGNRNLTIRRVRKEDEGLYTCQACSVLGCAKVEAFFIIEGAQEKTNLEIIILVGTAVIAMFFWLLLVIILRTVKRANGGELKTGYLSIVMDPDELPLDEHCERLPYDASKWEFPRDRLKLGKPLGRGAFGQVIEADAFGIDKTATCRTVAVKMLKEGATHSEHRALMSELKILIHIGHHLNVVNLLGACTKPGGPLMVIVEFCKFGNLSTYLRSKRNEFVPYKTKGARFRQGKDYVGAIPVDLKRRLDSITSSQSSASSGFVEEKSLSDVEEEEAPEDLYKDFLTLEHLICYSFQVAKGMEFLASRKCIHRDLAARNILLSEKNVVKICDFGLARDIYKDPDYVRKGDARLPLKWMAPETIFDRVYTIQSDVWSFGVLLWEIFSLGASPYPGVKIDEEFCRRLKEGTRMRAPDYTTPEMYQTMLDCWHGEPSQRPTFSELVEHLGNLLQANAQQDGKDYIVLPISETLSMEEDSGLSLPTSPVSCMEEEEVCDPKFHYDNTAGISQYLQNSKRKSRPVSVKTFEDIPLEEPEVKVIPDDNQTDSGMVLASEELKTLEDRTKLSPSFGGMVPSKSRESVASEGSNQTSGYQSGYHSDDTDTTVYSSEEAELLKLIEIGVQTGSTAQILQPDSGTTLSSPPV

[3] = tested on: MDMBA-231 breast cancer cell line; assay: MTT antiproliferative assay, MDMBA-231; type: cell-based; settings: 10 µM, 24 h
Method: as §1

[4] = tested on: DLD-1 colorectal cancer cell line; assay: MTT antiproliferative assay, DLD-1; settings: for GI% DLD1: 10 µM, 24 h, MTT; for IC50: Homo sapiens, DLD-1, 24 h, read-out: IC50 DLD1 (half maximal growth inhibitory concentration)
Method: as §2, §3

BTK = molecular target: T4, BTK (Homo sapiens, UniProt Q06187); assay: Z`-LYTE kinase profiling, BTK; type: biochemical
T4 construct: purchased Invitrogen/Life Technologies

[5] = tested on: MCF-7 breast cancer cell line; assay: MTT antiproliferative assay, MCF-7; type: cell-based; settings: 10 µM, 24 h
Method: as §1

recombinant human TOP1 = molecular target: T5, recombinant human TOP1 (Homo sapiens, UniProt P11387); assay: Topoisomerase I-mediated DNA cleavage assay; settings: tested at 0.1, 1, 10, 100 µM
T5 sequence (P11387 1-765): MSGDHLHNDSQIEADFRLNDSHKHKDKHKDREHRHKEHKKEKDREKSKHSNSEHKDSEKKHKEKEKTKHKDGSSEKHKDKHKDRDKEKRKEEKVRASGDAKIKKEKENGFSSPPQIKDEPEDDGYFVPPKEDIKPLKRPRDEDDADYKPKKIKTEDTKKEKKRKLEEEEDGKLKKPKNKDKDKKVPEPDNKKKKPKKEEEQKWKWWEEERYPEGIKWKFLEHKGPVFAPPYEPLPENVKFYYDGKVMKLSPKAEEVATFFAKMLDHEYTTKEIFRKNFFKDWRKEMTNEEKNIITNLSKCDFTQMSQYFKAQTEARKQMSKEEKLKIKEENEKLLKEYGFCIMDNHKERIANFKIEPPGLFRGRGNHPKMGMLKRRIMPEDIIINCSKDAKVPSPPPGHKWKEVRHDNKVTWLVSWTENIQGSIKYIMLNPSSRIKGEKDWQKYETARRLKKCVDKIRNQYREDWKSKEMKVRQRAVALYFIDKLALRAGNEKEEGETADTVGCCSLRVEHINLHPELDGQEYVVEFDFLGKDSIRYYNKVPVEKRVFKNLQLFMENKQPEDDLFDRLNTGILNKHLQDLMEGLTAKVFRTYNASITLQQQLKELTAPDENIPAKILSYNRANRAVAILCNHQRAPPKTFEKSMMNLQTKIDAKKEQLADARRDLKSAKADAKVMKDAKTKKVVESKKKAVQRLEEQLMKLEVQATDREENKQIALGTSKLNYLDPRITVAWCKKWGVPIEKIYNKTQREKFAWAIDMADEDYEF
Method: Radiolabeled DNA was incubated with recombinant human TOP1 in 20 µL reaction buffer (10 mmol/L Tris-HCl, pH 7.5, 50 mmol/L KCl, 5 mmol/L MgCl2, 0.1 mmol/L EDTA, and 15 µg/mL BSA) at 30 °C for 20 min in the presence of the indicated drug concentrations. Reactions were terminated by adding SDS (0.5% final concentration) followed by the addition of two volumes of loading dye (80% formamide, 10 mmol/L sodium hydroxide, 1 mmol/L sodium EDTA, 0.1% xylene cyanol, and 0.1% bromophenol blue). Aliquots of reaction mixtures were subjected to 20% denaturing PAGE. Gels were dried and visualised by using PhosphorImager and Image Quant software (Molecular Dynamics).

VEGFR-1 = molecular target: T6, VEGFR-1 (Homo sapiens, UniProt P17948); assay: Z`-LYTE kinase profiling, VEGFR-1; type: biochemical
T6 construct: purchased Invitrogen/Life Technologies

EGFR = EGFR (Homo sapiens, UniProt P00533); assay: Z`-LYTE kinase inhibitory assay, EGFR
IGF-1R = molecular target: T7, IGF-1R (Homo sapiens, UniProt P08069); assay: Z`-LYTE kinase profiling, IGF-1R; type: biochemical
T7 construct: purchased Invitrogen/Life Technologies
T7 sequence (P08069 31-1367): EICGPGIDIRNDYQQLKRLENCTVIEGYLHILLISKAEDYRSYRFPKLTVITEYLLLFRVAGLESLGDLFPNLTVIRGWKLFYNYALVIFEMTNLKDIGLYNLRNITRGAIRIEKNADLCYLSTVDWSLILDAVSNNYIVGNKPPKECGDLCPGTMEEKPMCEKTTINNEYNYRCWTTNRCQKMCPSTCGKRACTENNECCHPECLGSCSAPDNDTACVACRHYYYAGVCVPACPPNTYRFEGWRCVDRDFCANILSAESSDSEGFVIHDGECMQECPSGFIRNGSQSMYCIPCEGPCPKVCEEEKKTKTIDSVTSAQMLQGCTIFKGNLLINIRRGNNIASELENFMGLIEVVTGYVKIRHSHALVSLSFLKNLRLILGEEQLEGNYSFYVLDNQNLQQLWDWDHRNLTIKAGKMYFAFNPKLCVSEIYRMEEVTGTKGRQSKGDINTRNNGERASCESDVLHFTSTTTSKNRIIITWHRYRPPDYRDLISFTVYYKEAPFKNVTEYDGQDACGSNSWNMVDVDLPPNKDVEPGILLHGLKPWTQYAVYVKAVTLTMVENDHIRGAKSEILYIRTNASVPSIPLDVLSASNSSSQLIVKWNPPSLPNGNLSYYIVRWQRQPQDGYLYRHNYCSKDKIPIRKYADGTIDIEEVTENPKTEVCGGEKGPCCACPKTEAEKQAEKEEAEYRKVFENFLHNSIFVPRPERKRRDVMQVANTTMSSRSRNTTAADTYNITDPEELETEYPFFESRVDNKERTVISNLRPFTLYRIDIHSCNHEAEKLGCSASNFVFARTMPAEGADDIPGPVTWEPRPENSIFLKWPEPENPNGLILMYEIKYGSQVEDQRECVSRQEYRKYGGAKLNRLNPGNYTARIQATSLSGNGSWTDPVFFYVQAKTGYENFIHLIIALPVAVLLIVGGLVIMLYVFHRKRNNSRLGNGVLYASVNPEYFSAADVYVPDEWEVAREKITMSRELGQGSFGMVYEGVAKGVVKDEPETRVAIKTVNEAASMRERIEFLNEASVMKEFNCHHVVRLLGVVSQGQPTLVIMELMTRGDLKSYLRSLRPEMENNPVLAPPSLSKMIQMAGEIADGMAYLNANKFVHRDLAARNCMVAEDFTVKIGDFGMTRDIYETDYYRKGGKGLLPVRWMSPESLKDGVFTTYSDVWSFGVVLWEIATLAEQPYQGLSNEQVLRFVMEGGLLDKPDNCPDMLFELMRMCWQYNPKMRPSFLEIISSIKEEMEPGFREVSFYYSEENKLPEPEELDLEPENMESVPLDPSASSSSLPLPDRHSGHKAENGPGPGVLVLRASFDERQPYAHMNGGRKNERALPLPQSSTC

c-Src = molecular target: T8, c-Src (Homo sapiens, UniProt P12931); assay: Z`-LYTE kinase profiling, c-Src; type: biochemical
T8 construct: purchased Invitrogen/Life Technologies
T8 sequence (P12931 whole entry): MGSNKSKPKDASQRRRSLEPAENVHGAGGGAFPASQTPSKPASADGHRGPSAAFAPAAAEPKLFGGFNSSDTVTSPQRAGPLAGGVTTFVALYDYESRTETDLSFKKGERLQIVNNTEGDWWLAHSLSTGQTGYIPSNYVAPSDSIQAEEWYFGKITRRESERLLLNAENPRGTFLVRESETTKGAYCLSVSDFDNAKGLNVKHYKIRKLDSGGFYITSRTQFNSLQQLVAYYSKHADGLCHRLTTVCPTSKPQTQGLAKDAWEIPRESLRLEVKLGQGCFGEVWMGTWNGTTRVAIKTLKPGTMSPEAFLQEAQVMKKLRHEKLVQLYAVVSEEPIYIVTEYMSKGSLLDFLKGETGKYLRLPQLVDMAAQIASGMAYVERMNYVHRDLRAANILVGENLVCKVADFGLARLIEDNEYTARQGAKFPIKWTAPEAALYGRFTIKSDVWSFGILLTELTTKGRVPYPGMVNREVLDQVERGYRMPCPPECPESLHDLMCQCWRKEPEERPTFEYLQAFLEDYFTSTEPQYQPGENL

T1 sequence (P42685 whole entry): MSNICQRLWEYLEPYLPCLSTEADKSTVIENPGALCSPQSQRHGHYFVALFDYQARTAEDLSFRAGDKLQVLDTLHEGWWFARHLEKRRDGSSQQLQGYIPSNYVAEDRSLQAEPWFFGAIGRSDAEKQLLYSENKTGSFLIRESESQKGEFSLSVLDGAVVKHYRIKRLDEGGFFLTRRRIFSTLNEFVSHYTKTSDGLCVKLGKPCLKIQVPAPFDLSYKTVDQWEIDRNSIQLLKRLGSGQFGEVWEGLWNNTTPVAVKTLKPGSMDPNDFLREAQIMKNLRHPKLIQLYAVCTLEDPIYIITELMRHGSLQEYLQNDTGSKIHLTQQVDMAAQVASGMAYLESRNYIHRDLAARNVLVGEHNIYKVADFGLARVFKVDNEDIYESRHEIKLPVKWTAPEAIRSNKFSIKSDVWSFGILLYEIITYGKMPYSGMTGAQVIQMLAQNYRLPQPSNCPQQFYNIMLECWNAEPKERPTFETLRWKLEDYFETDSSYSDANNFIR

Compound | IC50 (FRK) [nM] | IC50 (HER-2) [nM] | GI% HCT-116 [1] [%] | IC50 [1] [µM] | melting point [°C] | IC50 (FAK) [nM] | GI% Hela [2] [%] | IC50 (VEGFR-2) [nM] | GI% MDMBA-231 [3] [%] | GI% DLD1 [4] [%] | IC50 [4] [µM] | IC50 (BTK) [nM] | GI% MCF-7 [5] [%] | TOP1 inhibitory activity (semiquantitative score relative to 1 µM CPT) (recombinant human TOP1) | IC50 (VEGFR-1) [nM] | IC50 (EGFR) [nM] | IC50 (IGF-1R) [nM] | IC50 (c-Src) [nM] | fold decreased activity than Gefitinib, EGFR (EGFR; from IC50 values) [fold]
COc1cc2nc(-c3ccc(Cl)cc3)cc(OCCCN3CCN(C)CC3)c2cc1OC [6a, 2-(4-chlorophenyl)-6,7-dimethoxy-4–(3-(4-methylpiperazin-1-yl)propoxy)quinoline] | 825 | 1240 | 31.34 | 65.4 ± 4.37 | 140 to 142 | 214.4 ± 1.09 | 20.15 | 268 | 9.38 | 22.56 | > 100 | 1590 | 17.34 | −/+ (−/+: 0–25% 1 µM CPT) | 95.3 | 143 ± 2.54 | 1020 | 783 | –
COc1cc2nc(-c3ccc(Cl)cc3)cc(OCCCNC3CCCCC3)c2cc1OC [6b, N-(3-((2–(4-chlorophenyl)-6,7-dimethoxyquinolin-4-yl)oxy)propyl)cyclohexanamine] | 9150 | 123 | 42.81 | 16.8 ± 1.56 | 118 to 120 | 98.2 ± 4.67 | 12.81 | 6740 | 19.67 | 36.25 | 19.4 ± 2.15 | 8520 | 23.49 | −/+ (−/+: 0–25% 1 µM CPT) | 3330 | 45.3 ± 5.36 | 8060 | 2500 | –
COc1cc2nc(-c3ccc(Cl)cc3)cc(OCCCNC3CCN(C)CC3)c2cc1OC [6c, N-(3-((2–(4-chlorophenyl)-6,7-dimethoxyquinolin-4-yl)oxy)propyl)-1-methylpiperidin-4-amine] | 1560 | 1380 | 41.36 | 13.7 ± 1.29 | 124 to 126 | 45.7 ± 3.4 | 4.96 | 405 | 19.38 | 28.22 | 47 ± 2.46 | 2250 | 15.76 | −/+ (−/+: 0–25% 1 µM CPT) | 606 | 85.7 ± 6.46 | 2030 | 1500 | 2
COc1cc2nc(-c3ccc(Cl)cc3)cc(OCCCNCC3CCCO3)c2cc1OC (stereo not shown) [6d, 3-((2–(4-chlorophenyl)-6,7-dimethoxyquinolin-4-yl)oxy)-N-((tetrahydrofuran-2-yl)methy-l)propan-1-amine] | 507 | 695 | 82.61 | 4.67 ± 0.85 | 108 to 110 | 37 ± 2.34 | 26.98 | 492 | 63.39 | 75.64 | 8.15 ± 1.05 | 1370 | 71.97 | −/+ (−/+: 0–25% 1 µM CPT) | 303 | 46.4 ± 4.09 | 1590 | 408 | –
COc1cc2nc(-c3ccc(Cl)cc3)cc(OCCCn3ccnc3)c2cc1OC [6e, 4-(3-(1H-imidazol-1-yl)propoxy)-2–(4-chlorophenyl)-6,7-dimethoxyquinoline] | 9000 | 82.1 | 22.03 | > 100 | 209 to 211 | 211 ± 8.96 | 22.36 | 3760 | 4.67 | 15.79 | > 100 | 4940 | 5.34 | −/+ (−/+: 0–25% 1 µM CPT) | 7330 | 157 ± 11.4 | 2160 | 198 | –
COc1cc2nc(-c3ccc(C(F)(F)F)cc3)cc(OCCCNC3CCCCC3)c2cc1OC [6g, N-(3-((6,7-dimethoxy-2–(4-(trifluoromethyl)phenyl)quinolin-4-yl)oxy)propyl)cyclohexan-amine] | 1280 | 455 | 22.16 | 46.8 ± 3.16 | 131 to 133 | 146 ± 10.5 | 46.28 | 997 | 48.15 | 25.36 | 75.4 ± 5.46 | 4760 | 76.38 | 0 | 1110 | 365 ± 14.8 | 1480 | 2760 | –
COc1cc2nc(-c3ccc(C(F)(F)F)cc3)cc(OCCCn3ccnc3)c2cc1OC [6j, 4-(3-(1H-imidazol-1-yl)propoxy)-6,7-dimethoxy-2–(4-(trifluoromethyl)phenyl)quinoline] | 139 | 206 | 2.46 | > 100 | 217 to 219 | 186 ± 6.22 | 5.67 | 392 | 8.42 | 6.31 | > 100 | 185 | 14.67 | 0 | 769 | 258 ± 11.9 | 219 | 186 | –
COc1cc2nc(-c3ccc(C)cc3)cc(OCCCN3CCN(C)CC3)c2cc1OC [6k, 6,7-dimethoxy-4–(3-(4-methylpiperazin-1-yl)propoxy)-2-(p-tolyl)quinoline] | 3170 | 1350 | 22.15 | > 100 | 128 to 130 | 158 ± 8.73 | 11.32 | 5960 | 8.64 | 18.69 | > 100 | 2760 | 17.49 | 0 | 5040 | 410 ± 12.7 | 2400 | 6450 | –
COc1cc2nc(-c3ccc(C)cc3)cc(OCCCNC3CCCCC3)c2cc1OC [6l, N-(3-((6,7-dimethoxy-2-(p-tolyl)quinolin-4-yl)oxy)propyl)cyclohexanamine] | 743 | 756 | 69.15 | 8.11 ± 1.04 | 126 to 128 | 26.4 ± 2.81 | 34.29 | 2400 | 38.36 | 75.34 | 6.34 ± 0.52 | 1610 | 44.71 | −/+ (−/+: 0–25% 1 µM CPT) | 346 | 34.9 ± 3.76 | 1820 | 1920 | –
COc1cc2ncnc(Nc3ccc(F)c(Cl)c3)c2cc1OCCCN1CCOCC1 [Gefitinib, reference compound] | – | – | – | 6.94 ± 1.24 | – | – | – | – | – | – | – | – | – | – | – | – | – | – | –
CNC(=O)c1ccccc1Nc1nc(Nc2ccc(N3CCOCC3)cc2OC)ncc1Cl [TAE226, reference compound] | – | – | – | 0.17 ± 0.04 | – | – | – | – | – | – | 0.12 ± 0.05 | – | – | – | – | – | – | – | –
